Test results: patent US20110178105A1, “CLINICAL BENEFITS OF EICOSAPENTAENOIC ACID IN HUMANS” (E.I. DU PONT DE NEMOURS AND COMPANY, priority 2010, published 2011)
Several values for one entry are separate records, joined by “and”; a condition that tells them apart may be missing. Equal entries are not always repeated.

Columns and labels:
[1] = Clinical study: post-prandial lipids 4 hours after fat-rich test meal; type: in vivo, human; conditions: DHA 600 mg (n = 28), 6 weeks
Procedure: (§1) At visit 2, subjects were again asked to fast for 12 hours, and information about subject characteristics including all vital signs, recent illness or hospitalization, medication and supplement use, and diet information was again obtained. Subjects then had blood drawn for a metabolic profile and complete blood counts. […] Subjects (30 in each group) were then randomized equally for 6 weeks to one of four treatment arms: 1) olive oil placebo; 2) 600 mg of EPA/day; 3) 1800 mg of EPA/day; and, 4) 600 mg of DHA/day. At one week and three weeks after beginning the supplements, all study subjects were contacted by telephone and asked about any adverse effects and about their compliance, and the information on their calendars with regard to capsule use and fish intake. They were also asked about whether they had experienced any fishy aftertaste or odor, and if so, how frequent were these episodes, and how unpleasant were they? The entire process as listed above was repeated after study subjects were on the study capsules for 6 weeks at the time of the final visit. Compliance and adverse events were assessed by telephone at weeks 1 and 3 by telephone and at week 6 by questionnaire and capsule count. Over 42 days, subjects were expected to have consumed a total of 252 capsules. Compliance was calculated as a percentage of consumed capsule count/expected capsule count based on the number of days the subject was in the study. All subjects were asked to stay on their capsules until they come in for their final visit. Compliance in all participants who completed the study was based on capsule count was in excess of 85%, mean 96%.
(§2) On the samples obtained 4 hours after the fat-rich meal, total cholesterol, triglycerides, direct HDL cholesterol, and direct LDL cholesterol were measured. Direct LDL cholesterol and small dense LDL cholesterol levels were measured using kits obtained from Denka-Seiken Corporation, (Tokyo, Japan), as previously described (Okada, M. et al., supra; Hirano, T. et al., supra; Ai, M. et al., supra). Remnant lipoprotein cholesterol was measured using kits obtained from Polymedco (Cortland Manor, N.Y.) and manufactured by Otsuka Corporation (Tokyo, Japan) as previously described (McNamara, J. R. et al., Atherosclerosis, supra). All lipid assays are standardized through the Lipid Research Clinics standardization program of the Centers for Disease Control (Atlanta, Ga.). All assays had between and within run coefficients of variation of <5%. Serum fatty acid profiles were analyzed by Nutrasource Diagnostics (Guelph, Ontario, Canada).

[2] = Clinical study: inflammation markers, adhesion molecules, adiponectin (hsCRP, IL-6, sICAM, VCAM); type: in vivo, human; conditions: DHA 600 mg (n = 28); Fast; 6 weeks
Procedure: (§3) The following laboratory measurements were carried out on an automated analyzer (Roche Diagnostics, Indianapolis, Ind.) on samples obtained in the fasting state at the randomization visit, and the final visits using frozen aliquots of serum stored at −80 degrees Celsius: 1) total cholesterol; 2) triglycerides; 3) direct high density lipoprotein [“HDL”] cholesterol; 4) direct low density lipoprotein [“LDL”] cholesterol; 5) direct small dense LDL cholesterol; 6) apolipoprotein [“apo”] B; 7) apoA-I; 8) lipoprotein (a); 9) fibrinogen; 10) high sensitivity C reactive protein [“hs-CRP”]; 11) lipoprotein associated phospholipase A2 [“Lp-PLA2”]; and, 12) insulin as previously described. See, McNamara, J. R. and Schaefer, E. J., Clin. Chim. Acta, 166:1-8 (1987); Okada, M. et al., J. Lab. Clin. Med., 132:195-201 (1998); Hirano, T. et al., J. Lipid Res., 44:2193-2201 (2003); Ai, M. et al., Am. J. Cardiol., 101:315-318 (2008); Ingelsson, E. et al., JAMA, 298:776-785 (2007); Jenner, J. L. et al., Circulation, 87:1135-1141 (1993); Schaefer, E. J. et al., Am. J. Cardiol., 95:1025-1032 (2005); McNamara, J. R. et al., Atherosclerosis, 154:229-236 (2001).
Plasma apoB-48 was measured with an enzyme linked immunosorbent assay obtained from the Shibayagi Company (Gunma, Japan) (Kinoshita, M. et al., Clin. Chim. Acta, 351:115-120 (2005); Otokozawa, S. et al., Atherosclerosis, 205:197-201 (2009); Otokozawa, S. et al., Metabolism, 58(11): 1536-1542 (2009)). ICAM1 and VCAM1, interleukin-6 or IL-6, and adiponectin were all measured using commercially available enzyme linked immunoassays [“ELISA”] obtained from the R & D Corporation (Minneapolis, Minn.). All these assays have within and between run coefficients of variation of less than 10%.

[3] = Clinical study: fasting serum lipids, lipoproteins and apolipoproteins (automated analyzer); type: in vivo, human; conditions: DHA 600 mg (n = 28); Fast; 6 weeks
Procedure: as §1, §3, §2

[4] = cited from earlier work
[5] = TG forms; cited from earlier work
[6] = Clinical study: serum fatty acid profiles (EPA, ARA/EPA, Total Omega-3 Score); type: in vivo, human; conditions: 6 weeks
Procedure: as §2

- retroconversion of DHA to EPA [6]: no indication
- serum level of EPA ([6]; EPA 600 and 1800 mg/day, DHA 600 mg/day, FIG. 1): not
SMILES: CCC=CCC=CCC=CCC=CCC=CC/C=C\CCC(=O)O [DHA, cis-4,7, 10, 13, 16, 19-docosahexaenoic acid, reference compound]
- HDL C, 6-Week Change (%) [1]: +1.2 ± 10.9%
- HDL C, Final [1]: 57.5 ± 22.7 mg/dL
- LDL C, Final [1]: 121.9 ± 32.9 mg/dL
- Total Cholesterol, 6-Week Change (%) [1]: +6.2 ± 10.8%
- Total Cholesterol, Final [1]: 211.1 ± 38.6 mg/dL
- Triglyceride, 6-Week Change (%) [1]: −9.5% and −9.5 ± 24.4%
- Triglyceride, Final [1]: 169.8 ± 89.2 mg/dL
- Adiponectin, 6-Week Change (%) [2]: −6.7 ± 19.8%
- Adiponectin, Final [2]: 11380.0 ± 14772.6 ng/mL
- IL-6, 6-Week Change (%) [2]: +5.7 ± 50.3%
- IL-6, Final [2]: 1.6 ± 0.9 pg/mL
- VCAM, 6-Week Change (%) [2]: +0.2 ± 11.0%
- VCAM, Final [2]: 673.0 ± 197.4 ng/mL
- hsCRP, 6-Week Change (%) [2]: +27.1 ± 82.3%
- hsCRP, Final [2]: 3.4 ± 4.5 mg/L
- sICAM, 6-Week Change (%) [2]: +0.7 ± 18.0%
- sICAM, Final [2]: 240.2 ± 114.1 ng/mL
- HDL C, 6-Week Change (%) [3]: +1.3 ± 14.7%
- HDL C, Final [3]: 62.0 ± 23.7 mg/dL
- LDL C, Final [3]: 130.3 ± 37.2 mg/dL
- Lp(a), 6-Week Change (%) [3]: +27.7 ± 156.3%
- Lp(a), Final [3]: 40.0 ± 40.1 mg/dL
- Total Cholesterol, 6-Week Change (%) [3]: +2.9 ± 12.0%
- Total Cholesterol, Final [3]: 216.1 ± 44.1 mg/dL
- Triglyceride, 6-Week Change (%) [3]: −5.8 ± 30.4%
- Triglyceride, Final [3]: 104.4 ± 58.0 mg/dL
- apoA-I, 6-Week Change (%) [3]: −2.0 ± 10.5%
- apoA-I, Final [3]: 177.5 ± 43.0 mg/dL
- apoB, 6-Week Change (%) [3]: +6.0 ± 15.6%
- apoB, Final [3]: 97.1 ± 25.7 mg/dL
- sdLDL, 6-Week Change (%) [3]: −2.2 ± 24.7%
- sdLDL, Final [3]: 31.1 ± 13.3 mg/dL
- effects on C-reactive protein, interleukin-6, or tumor necrosis alpha ([4]; 4 grams per day): no significant effects
- HDL2 cholesterol ([4]; 4 grams/day): significantly increased
- forearm blood flow in response to acetylcholine infusion relative to placebo ([4]; 4 grams/day): significantly increased
- reduction of triglyceride levels ([4]; 4 grams/day, overweight, hyperlipidemic men): 20%
- better absorbed than EE forms [5]: 36%
- Total Omega-3 Score ([6]; FIG. 4): increased
- serum ratio of ARA/EPA (Inflammation Index) ([6]; EPA 600 and 1800 mg/day, DHA 600 mg/day, FIG. 3, listed as DHA-rich oil): no such effect
